This note sets out measurements from ChEMBL document CHEMBL1125918, “Synthesis of 3-carbamoylecgonine methyl ester analogues as inhibitors of cocaine binding and dopamine uptake” (J Med Chem, 1991).

The structures appear in SMILES notation. Bounds are passed on as bounds.

The species named for the experiment is Rattus norvegicus. Description: Compound was evaluated in vitro, for the ability to inhibit [3H]- dopamine uptake into synaptosomes (prepared from rat striatal tissues). The class given is functional. As to conditions: Brain.
For the compound `COC(=O)C1C2CC[C@H](C[C@@H]1OC(=O)Nc1cccc([N+](=O)[O-])c1)N2C` (stereo partly specified), inhibition was half-maximal at 0.178 µM (IC50).

As for `COC(=O)C1C2CC[C@H](C[C@@H]1OC(=O)Nc1ccc([N+](=O)[O-])cc1)N2C` (stereo partly specified), the IC50 turned out to be 5.7 µM.

In turn, `COC(=O)C1C2CC[C@H](C[C@@H]1OC(=O)Nc1ccccc1)N2C` (stereo partly specified) came in with a half-maximal inhibitory concentration (IC50) of 52.6 µM.

With `COC(=O)C1C2CC[C@H](C[C@@H]1OC(=O)Nc1ccc(N)cc1)N2C` (stereo partly specified), the IC50 was greater than 100 µM.

Regarding `COC(=O)C1C2CC[C@H](C[C@@H]1OC(=O)Nc1cccc(N)c1)N2C` (stereo partly specified), it took 23.1 µM to reach half-maximal inhibition (IC50).

Turning to `COC(=O)[C@H]1[C@@H](OC(=O)c2ccccc2)C[C@@H]2CC[C@H]1N2C` [COCAINE], it took 0.213 µM to reach half-maximal inhibition (IC50).
